17 molecules from patent publication US20240368153A1, “Aminopyridine-based MTA-Cooperative PRMT5 Inhibitors” (Mirati Therapeutics, Inc., priority 2021, published 2024) can be followed below.

Molecules are shown by their SMILES.

For experiment [1], the target named is T1, PRMT5/MEP50 complex (Homo sapiens (Human), UniProt O14744). Briefly: PRMT5:MEP50 HotSpot Assay. The experiment is classed as biochemical. The settings on record: read-out: IC50 + 2 μM MTA, full-length histone H2A, presence of 2 μM MTA. The procedure: The assay uses recombinant full-length histone H2A as the PRMT5 substrate. Enzymatic transfer of the tritiated methyl group from S-adenosyl-L-[methyl-3H]methionine to the histone H2A protein generated a radiolabeled histone […] in a scintillation counter to determine the activity of PRMT5 enzyme in the presence and absence of compound. […] Briefly, compounds of the present invention were solubilized in 100% DMSO at a highest concentration of 10 mM. […] Control samples lacking compound, PRMT5/MEP50 complex or various reaction components also were prepared and processed in parallel with compound test samples. SAH was used as a positive control for assay validation. To measure PRMT5 inhibitory activity. 1 nM PRMT5/MEP50 complex (Reaction Biology Corporation) was preincubated with test compound in assay buffer containing 5 μM full-length histone H2A for 20 min at room temperature. The enzymatic reaction was initiated by adding 1 μM tritiated S-adenosyl methionine (final concentration) and the reaction was allowed to proceed for 60 min. The reaction was stopped and transferred to filter paper for detection. The amount of tritiated H2A in each sample was determined using a scintillation counter.
T1 sequence (O14744 whole entry): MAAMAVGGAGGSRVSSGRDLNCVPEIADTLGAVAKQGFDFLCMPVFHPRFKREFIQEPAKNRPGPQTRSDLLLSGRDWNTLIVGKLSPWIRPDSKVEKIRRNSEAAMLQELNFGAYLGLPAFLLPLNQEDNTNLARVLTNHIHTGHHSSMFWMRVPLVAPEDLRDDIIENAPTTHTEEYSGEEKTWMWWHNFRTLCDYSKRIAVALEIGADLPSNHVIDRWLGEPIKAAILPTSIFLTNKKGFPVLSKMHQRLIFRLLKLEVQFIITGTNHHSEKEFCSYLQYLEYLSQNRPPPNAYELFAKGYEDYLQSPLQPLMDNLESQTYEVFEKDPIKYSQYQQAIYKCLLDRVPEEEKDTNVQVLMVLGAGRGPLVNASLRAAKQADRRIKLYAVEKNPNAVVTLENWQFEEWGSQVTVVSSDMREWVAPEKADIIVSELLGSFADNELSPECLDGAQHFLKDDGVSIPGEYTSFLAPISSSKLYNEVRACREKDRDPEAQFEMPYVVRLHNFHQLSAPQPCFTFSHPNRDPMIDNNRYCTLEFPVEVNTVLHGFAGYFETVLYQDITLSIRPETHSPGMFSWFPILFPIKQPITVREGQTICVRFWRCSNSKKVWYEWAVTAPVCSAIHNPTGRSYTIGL
T1 sequence (Q9BQA1 whole entry partner): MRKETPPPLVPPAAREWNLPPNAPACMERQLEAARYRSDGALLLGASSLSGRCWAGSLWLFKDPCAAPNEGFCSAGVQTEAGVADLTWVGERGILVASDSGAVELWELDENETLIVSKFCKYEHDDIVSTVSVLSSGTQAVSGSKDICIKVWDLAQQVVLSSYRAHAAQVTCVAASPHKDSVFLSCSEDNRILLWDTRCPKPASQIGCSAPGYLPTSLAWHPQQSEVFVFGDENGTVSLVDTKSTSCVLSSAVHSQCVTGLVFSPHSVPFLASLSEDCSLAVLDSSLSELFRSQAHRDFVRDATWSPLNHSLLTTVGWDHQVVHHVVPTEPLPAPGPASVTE

Experiment [2] concerns the target PRMT5•SAM (biotinylated PRMT5-MEP50) (Homo sapiens (Human), UniProt O14744). Description: SPR binding assay, SAM running buffer. The settings on record: 20 μM SAM running buffer. The procedure:
(§1) SPR screening was performed in MTA running buffer (25 mM Bicine pH 7.6, 100 mM NaCl, 1 mM TCEP, 20 μM MTA, 0.05% Tween-20 and 2% DMSO). The biotinylated PRMT5-MEP50 surface was equilibrated with MTA running buffer for 12 hours prior to the start. […] Subsequently, compound titration was repeated in SAM-running buffer (25 mM Bicine pH 7.6, 100 mM NaCl, 1 mM TCEP, 20 μM SAM, 0.05% Tween-20, and 2% DMSO). […] After double referencing, the steady-state response was extracted for each fragment concentration and was fit to the Langmuir isotherm equation to determine the equilibrium dissociation constant (KD).
On the technique in general: SPR reads the build-up and loss of mass on a sensor chip optically.

Experiment [3] has as its target recombinant human dual expressed Avi PRMT5/His-MEP50 protein (Homo sapiens (Human), UniProt O14744). Briefly: HTRF binding assay in presence of MTA. To be noted: 30 μM MTA. The procedure: The PRMT5 binding activity of compounds of the present invention was determined using an HTRF binding assay or SPR assay.
A recombinant human dual expressed Avi PRMT5/His-MEP50) protein (corresponding to amino acids for PRMT5 2-637, and 2-342 for MEP50 expressed in baculovirus) was incubated with target fragments in final buffer (25 mM ADA pH 7.2, 30 μM MTA, 1 mM TCEP, 50 mM NaCl, 0.002% Tween, 5 nM proprietary Tracer binding compound prepared in-house), overnight at 2-8° C. After overnight incubation the binding is monitored after the addition of 0.5 nM Anti-His-Tb (Cisbio) after 1 hr incubation at RT (˜20-24 hrs total binding time). The HTRF signal was measured using a Clariostar reader (BMG) excitation filter (Ex Tr), dichroic filter (LP TP) and emission filters (F 665-10 and F 620-10) manufacturer's instructions. The HTRF ratio was calculated using the formula: [emission 665/emission 620]*10000.
A general note: In TR-FRET formats the signal depends on donor and acceptor labels being close together.

Experiment [4] addresses PRMT5•MTA (biotinylated PRMT5-MEP50) (Homo sapiens (Human), UniProt O14744). Description: SPR binding assay, MTA running buffer. To be noted: 20 μM MTA running buffer. Here is the method:
as §1

Experiment [5] addresses T1, PRMT5/MEP50 complex. Description: PRMT5:MEP50 FlashPlate Assay. The experiment is classed as biochemical. The procedure:
The PRMT5 inhibitory activity of compounds of the present invention was determined using a PRMT5:MEP50 FlashPlate Assay (Reaction Biology Corporation).
The assay uses purified human, PRMT5 enzyme to convert S-adenosyl-L-[methyl-^3H]methionine plus histone H4 L-arginine to S-adenosyl-L-homocysteine plus histone H4 [methyl-^3H]-L-arginine. The assay was carried out using Streptavidin-coated FlashPlates (Perkin Elmer), which contained a scintillant embedded in the plastic of the plate. The histone H4 peptide substrate was conjugated with biotin, which binds to the streptavidin-coated well of the plate, placing the H4 peptide in close proximity to the side well and the scintillant. The transfer of the tritiated methyl group from S-adenosyl-L-[methyl-^3H]methionine to the bound histone H4 peptide generated a radiolabeled histone H4, which was quantitated by measuring in a scintillation counter to determine the activity of PRMT5 enzyme in the presence and absence of compound. […] Briefly, compounds of the present invention were solubilized in 100% DMSO at a highest concentration of 10 mM. For IC, determinations, the initial starting concentration for the serial dilutions of each compound was 50 μM. Control samples lacking compound, PRMT5/MEP50 complex or various reaction components also were prepared and processed in parallel with compound test samples. SAH was used as a positive control for assay validation. To measure PRMT5 inhibitory activity, 3 nM PRMT5/MEP50 complex (Reaction Biology Corporation) was preincubated with test compound in assay buffer containing 40 nM histone H4 peptide (amino acids 1-15)-Biotin conjugate for 20 min at room temperature. The enzymatic reaction was initiated by adding 1 μM tritiated S-adenosyl methionine (final concentration) and the reaction is allowed to proceed for 20 min. The reaction was stopped and the amount of bound, tritiated H4 peptide in each sample was determined using a scintillation counter. The IC50 value for each compound was calculated from each 10-point dose-response curve for samples plus and minus MTA using GraphPad Prism software and the results for exemplary compounds of Formula (I) is shown in Table 9a.

The mark [6] stands for this setting: histone H4 peptide, absence of MTA, read-out: IC50.
Where [7] appears, read: read-out: IC50 + 2 μM MTA, histone H4 peptide, presence of 2 μM MTA.

Sequence of recombinant human dual expressed Avi PRMT5/His-MEP50 protein (O14744 2-637): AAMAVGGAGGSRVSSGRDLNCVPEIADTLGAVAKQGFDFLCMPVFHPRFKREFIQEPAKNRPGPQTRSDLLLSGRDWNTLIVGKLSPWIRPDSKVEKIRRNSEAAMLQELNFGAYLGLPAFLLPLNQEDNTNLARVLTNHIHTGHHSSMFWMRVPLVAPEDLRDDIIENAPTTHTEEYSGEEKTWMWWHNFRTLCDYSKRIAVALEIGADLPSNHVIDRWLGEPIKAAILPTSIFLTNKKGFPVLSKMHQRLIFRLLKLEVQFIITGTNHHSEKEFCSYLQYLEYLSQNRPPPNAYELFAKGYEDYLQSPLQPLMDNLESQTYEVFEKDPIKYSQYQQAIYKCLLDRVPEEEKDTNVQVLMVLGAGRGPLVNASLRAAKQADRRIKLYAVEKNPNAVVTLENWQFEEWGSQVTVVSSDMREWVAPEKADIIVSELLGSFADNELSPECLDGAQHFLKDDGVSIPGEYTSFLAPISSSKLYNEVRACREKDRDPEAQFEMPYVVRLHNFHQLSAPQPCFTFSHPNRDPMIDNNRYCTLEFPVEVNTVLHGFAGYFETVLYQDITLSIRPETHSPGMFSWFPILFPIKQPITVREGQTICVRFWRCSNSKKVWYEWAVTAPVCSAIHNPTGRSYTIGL
Sequence of recombinant human dual expressed Avi PRMT5/His-MEP50 protein (Q9BQA1 2-342 partner): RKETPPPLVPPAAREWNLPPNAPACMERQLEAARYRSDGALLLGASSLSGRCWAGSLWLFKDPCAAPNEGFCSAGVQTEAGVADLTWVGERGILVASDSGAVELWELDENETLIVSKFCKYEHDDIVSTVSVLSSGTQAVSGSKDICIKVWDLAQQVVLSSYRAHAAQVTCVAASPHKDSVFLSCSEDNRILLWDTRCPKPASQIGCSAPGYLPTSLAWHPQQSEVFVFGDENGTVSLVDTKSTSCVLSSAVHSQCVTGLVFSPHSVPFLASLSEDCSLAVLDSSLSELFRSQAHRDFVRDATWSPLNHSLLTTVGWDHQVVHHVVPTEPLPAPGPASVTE
Sequence of PRMT5•MTA (biotinylated PRMT5-MEP50) (O14744 whole entry): as the sequence (O14744 whole entry) above
Sequence of PRMT5•MTA (biotinylated PRMT5-MEP50) (Q9BQA1 whole entry partner): as the sequence (Q9BQA1 whole entry partner) above
Sequence of PRMT5•SAM (biotinylated PRMT5-MEP50) (O14744 whole entry, the tested form may be a part): as the sequence (O14744 whole entry) above
Sequence of PRMT5•SAM (biotinylated PRMT5-MEP50) (Q9BQA1 whole entry partner, the tested form may be a part): as the sequence (Q9BQA1 whole entry partner) above

As a reminder, the IC50 is the point on the concentration scale where inhibition reaches its midpoint. Regarding `Cc1cc2ncc(C(=O)N(Cc3ccc(Br)cn3)[C@H](C)c3ncccn3)cc2nc1N` [Example 10-8, (R)-6-amino-N-((5-bromopyridin-2-yl)methyl)-7-methyl-N-(1-(pyrimidin-2-yl)ethyl)-1,5-naphthyridine-3-carboxamide], the IC50 in experiment [1] amounted to 60.2 nM.
Broadly, the Kd is a measure of binding affinity in units of concentration. A high value points to lower affinity. As to `Cc1cc(N)nc2cc(CNC(=O)c3ccncn3)cnc12` [Example 7-2, N-[(6-amino-8-methyl-1,5-naphthyridin-3-yl)methyl]pyrimidine-4-carboxamide], the results for the equilibrium dissociation constant (Kd) in experiment [2] and in experiment [4] were 2220 nM and 151 nM, respectively. For the same molecule, the IC50 in experiment [3] is 313 nM; in experiment [5] (setting [6]) it was > 100 µM; in experiment [5] (setting [7]), 22 µM.
The corresponding values for `Cc1cc(N)nc2cc(CNC(=O)c3ccccc3)cnc12` [Example 7-1, N-[(6-amino-8-methyl-1,5-naphthyridin-3-yl)methyl]benzamide] are 396 nM, 94 nM, 158 nM, 62.6 µM and 5.57 µM.
With `Cc1cc(N)nc2cc(Cc3cnn(C)c3)cnc12` [Example 2-9, 4-methyl-7-[(1-methylpyrazol-4-yl)methyl]-1,5-naphthyridin-2-amine], the Kd in experiment [2] was found to be 748 nM; in experiment [4], 137 nM. Besides, the IC50 was determined as 204 nM in experiment [3], 243 µM in experiment [5] (setting [6]) and 17.1 µM in experiment [5] (setting [7]).
As to `Cc1cc2[nH]c(-n3cnc(Br)c3)cc2nc1N` [Example 13-3, 2-(4-bromoimidazol-1-yl)-6-methyl-1H-pyrrolo[3,2-b]pyridin-5-amine], the Kd in experiment [2] was 2010 nM; in experiment [4], 680 nM. For the same molecule, the IC50 is 2360 nM in experiment [3]; 131 µM in experiment [5] (IC50 + 2 μM MTA, histone H4 peptide, presence of 2 μM MTA); > 300 µM in experiment [5] (setting [6]).
As to `Cc1cc(N)nc2cc(Cc3ccccc3C#N)cnc12` [Example 2-4, 2-((6-amino-8-methyl-1,5-naphthyridin-3-yl)methyl)benzonitrile], the equilibrium dissociation constant (Kd) in experiment [2] worked out at 3090 nM; in experiment [4], 874 nM. For the same molecule, the IC50 in experiment [3] is 992 nM; in experiment [5] (setting [6]) it was > 300 µM; in experiment [5] (setting [7]) it was > 300 µM.
As for `Cc1cc(N)nc2ccc(-c3ccccc3F)nc12` [Example 4-7, 6-(2-fluorophenyl)-4-methyl-1,5-naphthyridin-2-amine], the figures for the Kd in experiment [2] and in experiment [4] were 81400 nM and 32000 nM, respectively. The concentration for half-maximal inhibition (IC50) was 10100 nM in experiment [3], > 300 µM in experiment [5] (setting [6]) and > 300 µM in experiment [5] (setting [7]).
As to `Cc1cc(N)nc2cc(CN3C(=O)c4ccccc4C3=O)cnc12` [Example 7-6, 2-[(6-amino-8-methyl-1,5-naphthyridin-3-yl)methyl]isoindoline-1,3-dione], the Kd in experiment [2] is 105 nM; in experiment [4], 12 nM. Also, the IC50 in experiment [3] was 21 nM; in experiment [5] (setting [6]) it was > 300 µM; in experiment [5] (setting [7]), 0.745 µM.
As for `CC(=O)N(C)Cc1cc2nc(N)c(C)cc2[nH]1` [Example 14-4, N-((5-amino-6-methyl-1H-pyrrolo[3,2-b]pyridin-2-yl)methyl)-N-methylacetamide], the equilibrium dissociation constant (Kd) in experiment [2] is 80 nM; in experiment [4], 17 nM. The figures for the IC50 in experiment [3], in experiment [5] (setting [6]) and in experiment [5] (setting [7]) were 124 nM, 170 µM and 1.24 µM, respectively.
Turning to `Nc1nc2cc(NC(=O)c3ccccc3F)[nH]c2cc1Br` [Example 12-4, N-(5-amino-6-bromo-1H-pyrrolo[3,2-b]pyridin-2-yl)-2-fluoro-benzamide], the figures for the Kd in experiment [2] and in experiment [4] were 4950 nM and 1890 nM, respectively. Further, the IC50 in experiment [3] came to 1620 nM; in experiment [5] (setting [6]) it was 100 µM; in experiment [5] (setting [7]) it was 48.9 µM.
The corresponding values for `Cc1cc(N)nc2cc(CNC(=O)c3ccccc3)cnc12` [Example 8-1, N-[(6-amino-8-methyl-1,5-naphthyridin-3-yl)methyl]benzamide] are 33 nM, 5 nM, 9 nM, 4.29 µM and 0.419 µM.
In the case of `Cc1cc2sc(CNC(=O)c3ccccc3)cc2nc1N` [Example 16-1, N-[(5-amino-6-methyl-thieno[3,2-b]pyridin-2-yl)methyl]benzamide], the results for the Kd in experiment [2] and in experiment [4] were 1350 nM and 72 nM, respectively. Moreover, the half-maximal inhibitory concentration (IC50) in experiment [3] was 163 nM; in experiment [5] (setting [6]) it was > 300 µM; in experiment [5] (setting [7]) it was 18.2 µM.
The corresponding values for `Cc1cc2[nH]c(-n3cncn3)cc2nc1N` [Example 13-1, 6-methyl-2-(1,2,4-triazol-1-yl)-1H-pyrrolo[3,2-b]pyridin-5-amine] are 1180 nM, 510 nM, 1280 nM, > 300 µM and 176 µM.
Take `CC(=O)NCc1cc2nc(N)c(C)cc2[nH]1` [Example 14-3, N-((5-amino-6-methyl-1H-pyrrolo[3,2-b]pyridin-2-yl)methyl)acetamide]: the Kd worked out at 38 nM in experiment [2] and 12 nM in experiment [4]. The IC50 came to 102 nM in experiment [3], 271 µM in experiment [5] (setting [6]) and 0.138 µM in experiment [5] (setting [7]).
For the molecule `Nc1nc2cc[nH]c2cc1C1CC1` [Example 9-2, 6-cyclopropyl-1H-pyrrolo[3,2-b]pyridin-5-amine], the values for the Kd in experiment [2] and in experiment [4] were 19600 nM and 3260 nM, respectively. Moreover, the IC50 in experiment [3] came out at 24700 nM; in experiment [5] (setting [6]), 232 µM; in experiment [5] (setting [7]) it was 97.8 µM.
With `Nc1nc2cc(CNC(=O)c3ccncn3)[nH]c2cc1Br` [Example 8-2, N-[(5-amino-6-bromo-1H-pyrrolo[3,2-b]pyridin-2-yl)methyl]pyrimidine-4-carboxamide], the results for the Kd in experiment [2] and in experiment [4] were 137 nM and 9 nM, respectively. In addition, the IC50 in experiment [3] is 13 nM; in experiment [5] (setting [6]), 5.79 µM; in experiment [5] (setting [7]), 0.362 µM.
Regarding `Cc1cc2[nH]c(Cn3ccc4ccccc4c3=O)cc2nc1N` [Example 14-7, 2-[(5-amino-6-methyl-1H-pyrrolo[3,2-b]pyridin-2-yl)methyl]isoquinolin-1-one], the Kd is 6 nM in experiment [2] and 2 nM in experiment [4]. In addition, the figures for the half-maximal inhibitory concentration (IC50) in experiment [3], in experiment [5] (setting [6]) and in experiment [5] (setting [7]) were 8 nM, 36.7 µM and 0.474 µM, respectively.
